Source: ChEMBL document CHEMBL5291721, “A preclinical secondary pharmacology resource illuminates target-adverse drug reaction associations of marketed drugs” (Nat Commun, 2023)

Tests used:
Vasopressin V2 receptor = Vasopressin V2 receptor (Homo sapiens, UniProt P30518)
[1] = target: T1, Amine oxidase [flavin-containing] A (Homo sapiens, UniProt P21397); format: functional
T1 sequence (P21397 whole entry): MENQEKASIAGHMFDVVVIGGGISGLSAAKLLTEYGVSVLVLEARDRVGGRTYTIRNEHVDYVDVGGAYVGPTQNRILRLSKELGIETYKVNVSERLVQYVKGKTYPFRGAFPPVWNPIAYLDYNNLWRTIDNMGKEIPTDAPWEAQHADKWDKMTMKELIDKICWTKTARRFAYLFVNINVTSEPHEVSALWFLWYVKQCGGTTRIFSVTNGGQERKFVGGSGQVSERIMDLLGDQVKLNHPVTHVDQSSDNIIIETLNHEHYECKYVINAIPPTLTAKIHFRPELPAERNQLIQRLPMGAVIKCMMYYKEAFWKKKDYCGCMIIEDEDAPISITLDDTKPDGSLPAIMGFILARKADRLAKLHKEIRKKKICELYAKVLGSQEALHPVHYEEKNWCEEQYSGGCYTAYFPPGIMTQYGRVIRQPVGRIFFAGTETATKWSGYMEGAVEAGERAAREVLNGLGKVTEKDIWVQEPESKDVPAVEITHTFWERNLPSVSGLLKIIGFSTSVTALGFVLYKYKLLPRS

[2] = target: 5-hydroxytryptamine receptor 2B (Homo sapiens, UniProt P41595); format: functional, cell-based
Cannabinoid receptor 1 = Cannabinoid receptor 1 (Homo sapiens, UniProt P21554); format: functional, cell-based
[3] = target: Delta-type opioid receptor (Homo sapiens, UniProt P41143)
[4] = target: Neuronal acetylcholine receptor subunit alpha-4 (Homo sapiens, UniProt P43681)
[5] = target: Sodium-dependent serotonin transporter (Homo sapiens, UniProt P31645)
Progesterone receptor = target: T2, Progesterone receptor (Homo sapiens, UniProt P06401); format: functional
T2 sequence (P06401 whole entry): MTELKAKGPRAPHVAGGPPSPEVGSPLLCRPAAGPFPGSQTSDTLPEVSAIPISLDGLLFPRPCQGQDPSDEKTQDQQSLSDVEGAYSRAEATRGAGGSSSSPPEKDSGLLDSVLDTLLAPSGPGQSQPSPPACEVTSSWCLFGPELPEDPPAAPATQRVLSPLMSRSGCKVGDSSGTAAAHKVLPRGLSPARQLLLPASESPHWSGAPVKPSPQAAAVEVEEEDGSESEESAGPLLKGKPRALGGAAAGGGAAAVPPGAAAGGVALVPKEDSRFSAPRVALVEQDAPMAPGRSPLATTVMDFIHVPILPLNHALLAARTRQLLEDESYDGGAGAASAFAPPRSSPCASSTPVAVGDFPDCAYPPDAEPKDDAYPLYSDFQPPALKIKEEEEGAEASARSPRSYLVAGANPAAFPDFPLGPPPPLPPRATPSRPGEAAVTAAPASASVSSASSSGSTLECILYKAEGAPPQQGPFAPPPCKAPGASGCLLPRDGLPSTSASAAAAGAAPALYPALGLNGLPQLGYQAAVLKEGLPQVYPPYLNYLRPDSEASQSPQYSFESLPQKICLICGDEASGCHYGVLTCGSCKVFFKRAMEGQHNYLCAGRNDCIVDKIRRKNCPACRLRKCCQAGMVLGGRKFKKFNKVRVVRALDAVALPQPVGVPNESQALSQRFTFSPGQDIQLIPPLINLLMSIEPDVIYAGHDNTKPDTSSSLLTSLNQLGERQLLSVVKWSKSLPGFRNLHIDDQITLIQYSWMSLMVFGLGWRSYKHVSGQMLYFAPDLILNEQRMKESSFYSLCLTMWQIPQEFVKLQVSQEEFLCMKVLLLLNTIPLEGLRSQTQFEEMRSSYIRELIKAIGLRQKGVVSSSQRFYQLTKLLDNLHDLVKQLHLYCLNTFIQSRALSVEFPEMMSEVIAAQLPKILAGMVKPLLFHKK

[6] = target: T3, Neuropeptide Y receptor type 1 (Homo sapiens, UniProt P25929)
T3 sequence (P25929 whole entry): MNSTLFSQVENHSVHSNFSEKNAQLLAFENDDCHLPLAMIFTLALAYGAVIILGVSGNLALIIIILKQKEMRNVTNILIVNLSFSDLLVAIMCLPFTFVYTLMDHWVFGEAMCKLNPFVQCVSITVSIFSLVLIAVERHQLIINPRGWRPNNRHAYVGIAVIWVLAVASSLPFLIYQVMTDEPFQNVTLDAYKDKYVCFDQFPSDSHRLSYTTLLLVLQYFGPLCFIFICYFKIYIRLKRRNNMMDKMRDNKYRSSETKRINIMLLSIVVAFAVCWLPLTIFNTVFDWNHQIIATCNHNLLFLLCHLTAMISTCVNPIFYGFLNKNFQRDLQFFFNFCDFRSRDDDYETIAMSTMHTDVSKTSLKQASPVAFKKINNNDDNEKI

Thromboxane A2 receptor = target: T4, Thromboxane A2 receptor (Homo sapiens, UniProt P21731)
T4 sequence (P21731 whole entry): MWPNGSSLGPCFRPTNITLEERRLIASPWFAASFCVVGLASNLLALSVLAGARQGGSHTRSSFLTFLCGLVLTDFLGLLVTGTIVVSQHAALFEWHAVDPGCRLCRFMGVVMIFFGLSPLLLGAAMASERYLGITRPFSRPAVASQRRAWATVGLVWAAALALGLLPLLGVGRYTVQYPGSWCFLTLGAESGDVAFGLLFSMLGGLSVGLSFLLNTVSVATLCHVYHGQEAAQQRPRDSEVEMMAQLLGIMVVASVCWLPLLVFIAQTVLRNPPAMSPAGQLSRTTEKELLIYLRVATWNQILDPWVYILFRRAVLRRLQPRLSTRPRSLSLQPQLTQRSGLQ
Note: assay procedure not described here.

Sodium-dependent serotonin transporter, sequence (P31645 whole entry): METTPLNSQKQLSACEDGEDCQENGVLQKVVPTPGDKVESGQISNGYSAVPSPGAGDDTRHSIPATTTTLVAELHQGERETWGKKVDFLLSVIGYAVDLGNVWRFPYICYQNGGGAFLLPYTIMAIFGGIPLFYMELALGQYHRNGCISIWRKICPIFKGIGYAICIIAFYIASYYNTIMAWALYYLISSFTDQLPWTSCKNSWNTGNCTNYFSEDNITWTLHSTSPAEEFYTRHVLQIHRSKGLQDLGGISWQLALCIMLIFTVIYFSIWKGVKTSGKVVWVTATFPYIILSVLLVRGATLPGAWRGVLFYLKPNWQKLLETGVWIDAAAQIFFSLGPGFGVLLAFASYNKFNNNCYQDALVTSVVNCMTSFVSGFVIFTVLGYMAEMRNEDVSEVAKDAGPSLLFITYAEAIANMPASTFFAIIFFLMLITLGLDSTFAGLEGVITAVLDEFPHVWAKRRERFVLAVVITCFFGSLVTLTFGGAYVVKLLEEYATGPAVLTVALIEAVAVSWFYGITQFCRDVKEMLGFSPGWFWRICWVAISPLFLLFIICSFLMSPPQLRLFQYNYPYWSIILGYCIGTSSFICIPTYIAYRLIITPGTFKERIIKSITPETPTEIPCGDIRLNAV
Cannabinoid receptor 1, sequence (P21554 whole entry): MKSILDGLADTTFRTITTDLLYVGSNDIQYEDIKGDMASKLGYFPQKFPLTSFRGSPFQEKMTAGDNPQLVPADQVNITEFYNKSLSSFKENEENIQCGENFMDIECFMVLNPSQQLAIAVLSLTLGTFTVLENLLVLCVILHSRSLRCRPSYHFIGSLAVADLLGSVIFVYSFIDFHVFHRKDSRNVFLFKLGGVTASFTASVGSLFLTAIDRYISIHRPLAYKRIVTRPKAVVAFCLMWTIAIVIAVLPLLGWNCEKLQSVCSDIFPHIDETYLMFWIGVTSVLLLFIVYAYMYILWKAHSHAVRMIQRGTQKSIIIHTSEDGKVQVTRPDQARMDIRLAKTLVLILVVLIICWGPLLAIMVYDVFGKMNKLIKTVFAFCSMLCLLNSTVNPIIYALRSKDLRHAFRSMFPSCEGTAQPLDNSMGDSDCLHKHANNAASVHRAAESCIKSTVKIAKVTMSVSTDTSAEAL
Vasopressin V2 receptor, sequence (P30518 whole entry): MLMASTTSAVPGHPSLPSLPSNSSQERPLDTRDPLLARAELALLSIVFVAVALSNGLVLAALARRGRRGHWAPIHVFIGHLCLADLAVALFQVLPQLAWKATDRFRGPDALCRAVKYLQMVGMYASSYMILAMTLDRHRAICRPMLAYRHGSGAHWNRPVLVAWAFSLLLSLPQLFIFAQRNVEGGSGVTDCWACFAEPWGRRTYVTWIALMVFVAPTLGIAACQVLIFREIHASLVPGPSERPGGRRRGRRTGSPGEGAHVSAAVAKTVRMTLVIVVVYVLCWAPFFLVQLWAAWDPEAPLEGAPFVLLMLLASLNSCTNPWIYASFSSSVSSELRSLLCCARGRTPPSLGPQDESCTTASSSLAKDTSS
Neuronal acetylcholine receptor subunit alpha-4, sequence (P43681 whole entry): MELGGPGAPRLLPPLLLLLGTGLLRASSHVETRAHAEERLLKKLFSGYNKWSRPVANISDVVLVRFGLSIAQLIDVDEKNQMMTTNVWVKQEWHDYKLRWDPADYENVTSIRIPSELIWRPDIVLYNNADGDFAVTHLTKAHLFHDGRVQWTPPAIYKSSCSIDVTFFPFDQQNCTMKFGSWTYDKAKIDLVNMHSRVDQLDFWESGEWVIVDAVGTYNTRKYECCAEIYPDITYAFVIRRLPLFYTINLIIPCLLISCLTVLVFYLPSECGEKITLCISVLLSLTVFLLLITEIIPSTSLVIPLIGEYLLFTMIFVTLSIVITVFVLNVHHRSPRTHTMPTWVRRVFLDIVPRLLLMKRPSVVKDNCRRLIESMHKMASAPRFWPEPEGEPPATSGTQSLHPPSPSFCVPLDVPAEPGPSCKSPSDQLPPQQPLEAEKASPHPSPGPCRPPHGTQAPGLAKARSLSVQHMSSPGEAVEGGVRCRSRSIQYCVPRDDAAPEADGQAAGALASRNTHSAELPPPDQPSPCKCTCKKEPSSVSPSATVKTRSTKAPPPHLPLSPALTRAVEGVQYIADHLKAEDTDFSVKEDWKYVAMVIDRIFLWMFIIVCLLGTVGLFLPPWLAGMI
5-hydroxytryptamine receptor 2B, sequence (P41595 whole entry): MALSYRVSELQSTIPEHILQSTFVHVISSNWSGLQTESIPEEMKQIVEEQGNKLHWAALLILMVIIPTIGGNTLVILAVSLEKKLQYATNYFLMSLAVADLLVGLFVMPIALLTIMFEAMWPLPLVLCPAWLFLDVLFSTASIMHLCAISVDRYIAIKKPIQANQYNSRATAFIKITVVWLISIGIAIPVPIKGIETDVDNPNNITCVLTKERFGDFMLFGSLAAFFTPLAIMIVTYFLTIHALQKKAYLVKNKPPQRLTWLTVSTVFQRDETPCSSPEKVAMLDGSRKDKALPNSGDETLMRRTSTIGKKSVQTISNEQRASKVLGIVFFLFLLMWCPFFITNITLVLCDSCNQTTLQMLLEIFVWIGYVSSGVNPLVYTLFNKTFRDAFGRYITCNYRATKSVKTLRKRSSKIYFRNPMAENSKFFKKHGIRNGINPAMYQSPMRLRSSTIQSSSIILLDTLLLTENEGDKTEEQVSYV
Delta-type opioid receptor, sequence (P41143 whole entry): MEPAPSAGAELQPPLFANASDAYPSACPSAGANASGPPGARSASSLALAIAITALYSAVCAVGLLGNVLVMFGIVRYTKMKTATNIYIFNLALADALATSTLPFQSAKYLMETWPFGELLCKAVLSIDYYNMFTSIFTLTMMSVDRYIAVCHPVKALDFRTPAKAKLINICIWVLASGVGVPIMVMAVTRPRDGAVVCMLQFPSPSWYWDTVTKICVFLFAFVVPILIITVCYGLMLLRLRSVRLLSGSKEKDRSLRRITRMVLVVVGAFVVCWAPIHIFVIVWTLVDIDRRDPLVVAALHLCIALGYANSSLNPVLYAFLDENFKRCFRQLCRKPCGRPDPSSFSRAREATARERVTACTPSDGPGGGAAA

SMILES | AC50 (Vasopressin V2 receptor) | AC50 [1] | AC50 [2] | AC50 (Cannabinoid receptor 1) | AC50 [3] | AC50 [4] | AC50 [5] | AC50 (Progesterone receptor) | AC50 [6] | AC50 (Thromboxane A2 receptor)
CS(=O)(=O)NC(=O)CCC/C=C\C[C@H]1C(=O)C[C@@H](O)[C@@H]1/C=C/[C@@H](O)COc1ccccc1 [SULPROSTONE] | > 30 µM | > 30 µM | > 30 µM | > 30 µM | > 30 µM | > 30 µM | > 30 µM | > 30 µM | > 30 µM | –
O=C(C[S+]([O-])Cc1ccco1)NC/C=C\COc1cc(CN2CCCCC2)ccn1 (stereo not given) [LAFUTIDINE] | > 10 µM | > 10 µM | > 10 µM | > 30 µM | > 30 µM | > 10 µM | > 10 µM | > 10 µM | > 10 µM | > 10 µM
CO/N=C(\C(=O)N[C@@H]1C(=O)N2C(C(=O)O)=C(CSc3nc(C)c(CC(=O)O)s3)CS[C@H]12)c1csc(N)n1 [CEFODIZIME] | > 30 µM | > 30 µM | > 30 µM | > 30 µM | > 30 µM | > 30 µM | > 30 µM | > 30 µM | > 30 µM | > 30 µM
CCN1C(=O)NC(c2ccccc2)C1=O (stereo not given) [ETHOTOIN] | > 30 µM | > 30 µM | > 30 µM | > 30 µM | > 30 µM | > 30 µM | > 30 µM | > 30 µM | > 30 µM | –
CCCO[C@H]1[C@@H]([C@@H](COCc2ccc(Cl)cc2)OCc2ccc(Cl)cc2)OC(OCC)[C@@H]1O (stereo not given in full) [CLOBENOSIDE] | > 30 µM | > 30 µM | > 30 µM | > 30 µM | > 30 µM | > 30 µM | > 30 µM | > 30 µM | > 30 µM | > 30 µM
COC(=O)c1ccc2c(c1)NC(=O)/C2=C(\Nc1ccc(N(C)C(=O)CN2CCN(C)CC2)cc1)c1ccccc1 [NINTEDANIB] | > 30 µM | > 30 µM | > 30 µM | > 30 µM | > 30 µM | > 30 µM | > 30 µM | > 30 µM | > 30 µM | –
CN(C)CCOCC(=O)NC12CC3CC(CC(C3)C1)C2 [TROMANTADINE] | > 30 µM | > 30 µM | > 30 µM | > 30 µM | > 30 µM | > 30 µM | > 30 µM | > 30 µM | > 30 µM | > 30 µM
CC1=C(C(=O)O)N2C(=O)[C@@H](NC(=O)[C@H](N)C3=CCC=CC3)[C@H]2SC1 [CEPHRADINE] | > 30 µM | > 30 µM | > 30 µM | > 30 µM | > 30 µM | > 30 µM | > 30 µM | > 30 µM | > 30 µM | –
COc1ccc(-n2nc(C(N)=O)c3c2C(=O)N(c2ccc(N4CCCCC4=O)cc2)CC3)cc1 [APIXABAN] | > 30 µM | > 30 µM | > 30 µM | > 30 µM | > 30 µM | > 30 µM | > 30 µM | > 30 µM | > 30 µM | –
O=C(O)c1nn(Cc2ccc(Cl)cc2Cl)c2ccccc12 [LONIDAMINE] | > 30 µM | > 30 µM | > 30 µM | > 30 µM | > 30 µM | > 30 µM | > 30 µM | > 30 µM | > 30 µM | –
COC(=O)[C@H]1[C@H]2C[C@@H]3c4[nH]c5ccccc5c4CCN3C[C@H]2C[C@@H](OC(=O)c2cc(OC)c(OC)c(OC)c2)[C@@H]1OC [DESERPIDINE] | > 30 µM | > 10 µM | > 10 µM | – | > 30 µM | > 30 µM | > 10 µM | > 30 µM | > 30 µM | > 30 µM
CCC(=O)O[C@H](CC(=O)O)C[N+](C)(C)C [LEVOCARNITINE PROPIONATE] | > 30 µM | > 30 µM | > 30 µM | > 30 µM | > 30 µM | > 30 µM | > 30 µM | > 30 µM | > 30 µM | –
CCCCCCCC(=O)CC[C@@H]1[C@@H](C/C=C\CCCC(=O)O)[C@@H](O)C[C@H]1O [UNOPROSTONE] | > 30 µM | > 30 µM | > 30 µM | > 30 µM | > 30 µM | > 30 µM | > 30 µM | > 30 µM | > 30 µM | –
CN(C)CCOC(=O)C(c1ccccc1)C1(O)CCCC1 (stereo not given) [CYCLOPENTOLATE] | > 10 µM | > 30 µM | > 10 µM | – | > 30 µM | > 10 µM | > 30 µM | > 10 µM | > 10 µM | > 10 µM
CCOC(=O)O[C@]1(C(=O)COC(=O)CC)CC[C@H]2[C@@H]3CCC4=CC(=O)C=C[C@]4(C)[C@H]3[C@@H](O)C[C@@]21C [PREDNICARBATE] | > 10 µM | > 10 µM | > 10 µM | – | > 30 µM | > 10 µM | > 10 µM | 1.3 µM | > 10 µM | > 10 µM
CC(=O)OCC1=C(C(=O)O)N2C(=O)[C@@H](NC(=O)Cc3cccs3)[C@H]2SC1 [CEPHALOTHIN] | > 30 µM | > 30 µM | > 30 µM | > 30 µM | > 30 µM | > 30 µM | > 30 µM | > 30 µM | > 30 µM | –
CC(=O)OCC1=C(C(=O)O)N2C(=O)[C@@H](NC(=O)CSc3ccncc3)[C@H]2SC1 [CEPHAPIRIN] | > 10 µM | > 10 µM | > 10 µM | – | > 30 µM | > 10 µM | > 10 µM | > 30 µM | > 10 µM | > 10 µM
O=C(O)c1ccc2nc(-c3cc(Cl)cc(Cl)c3)oc2c1 | > 30 µM | 18 µM | > 30 µM | – | 30 µM | > 30 µM | > 30 µM | > 30 µM | > 30 µM | > 30 µM
CCC(NC(C)C)C(O)c1ccc(O)c(O)c1 (stereo not given) [ISOETHARINE] | > 30 µM | > 30 µM | > 30 µM | – | > 30 µM | > 30 µM | > 30 µM | > 30 µM | > 30 µM | > 30 µM
